Measurements from ChEMBL document CHEMBL1149051, “Isolation of flavins from the Amazonian shrub Faramea guianesis” (1994).

What was measured:
Type in all cases: functional
Leishmania amazonensis [1] = test: Antileishmanial activity against Leishmania amazonensis H142 Guianese amastigotes in BALB/c mouse macrophages assessed as inhibition of infection at 0.02 mg/ml relative to control
Leishmania amazonensis [2] = test: Antileishmanial activity against Leishmania amazonensis H142 Guianese amastigotes in BALB/c mouse macrophages assessed as inhibition of infection at 0.05 mg/ml relative to control
Leishmania amazonensis [3] = test: Antileishmanial activity against Leishmania amazonensis H142 Guianese amastigotes in BALB/c mouse macrophages assessed as inhibition of infection at 0.04 mg/ml relative to control
Leishmania amazonensis [4] = test: Antileishmanial activity against Leishmania amazonensis H142 Guianese amastigotes in BALB/c mouse macrophages assessed as survival of peritoneal macrophages at 0.25 mg/ml relative to control

Oc1ccc(C2CCc3c(O)cc(O)cc3O2)cc1 (centres undefined)
inhibition at 20 µg/mL (Leishmania amazonensis [1]): 100% | inhibition at 50 µg/mL (Leishmania amazonensis [2]): 57% | inhibition at 40 µg/mL (Leishmania amazonensis [3]): 100% | survival at 250 µg/mL (Leishmania amazonensis [4]): 0%
